Patent US7897781B2, “Cold menthol receptor-1 antagonists” (Janssen Pharmaceutica NV, priority 2006, dated 2011)
Values joined by “and” are separate entries in the source; they are usually repeats but may differ in a detail not shown here. Equal entries are not always repeated.

Columns and labels:
Sprague-Dawley rats = assay: CFA-induced paw radiant heat hypersensitivity; format: in vivo, rat; settings: 30 mg/kg p.o.
Experimental: Intraplantar injection of Complete Freund's Adjuvant (CFA) in rodents results in a long-lasting inflammatory reaction, characterized by a pronounced hypersensitivity to both thermal and mechanical stimuli. This hypersensitivity peaks between 24-72 hours following injection and can last for several weeks. […] This paradigm also may be conducted with a multiple dosing or a prophylactic dosing regime designed to alter the course of hyperalgesia development. This test predicts the analgesic, anti-allodynic and antihyperalgesic effect of numerous effective clinical agents, including NSAIDS such as acetaminophen, aspirin and ibuprofen, and opioids such as morphine.
Each rat was placed in a test chamber on a warm glass surface and allowed to acclimate for approximately 10 minutes. A radiant thermal stimulus (beam of light) was then focused through the glass onto the plantar surface of each hind paw in turn. The thermal stimulus was automatically shut off by a photoelectric relay when the paw was moved or when the cut-off time was reached (20 seconds for radiant heat at ˜5 Amps). An initial (baseline) response latency to the thermal stimulus was recorded for each animal prior to the injection of CFA. Twenty-four hours following intraplantar CFA injection, the response latency of the animal to the thermal stimulus was then re-evaluated and compared to the animal's baseline response time. […] Immediately following the post-CFA latency assessment, test compound or vehicle (usually Solutol, hydroxypropyl methylcellulose, hydroxypropyl beta-cyclodextrin or PEG-400) was administered i.p. or p.o. to rats. […] The percent reversal (% R) of hypersenstivitiy was calculated according to the following formula: % Reversal=(Treatment Response−CFA Response)/(Baseline Response−CFA Response)×100.

canine TRPM8 [1] = biological target: T1, canine TRPM8 (Canis lupus familiaris, UniProt Q1A7N1); assay: In vitro canine TRPM8 functional assay (Ca2+-sensitive dye, icilin activation; Table 4 TRPM8 Screening); format: cell-based; settings: HEK293 cells expressing canine TRPM8, icilin activation; for % I (0.5 μM): compound at 0.5 μM
T1 construct: expressed in transfected cells
T1 sequence (Q1A7N1 1-1104): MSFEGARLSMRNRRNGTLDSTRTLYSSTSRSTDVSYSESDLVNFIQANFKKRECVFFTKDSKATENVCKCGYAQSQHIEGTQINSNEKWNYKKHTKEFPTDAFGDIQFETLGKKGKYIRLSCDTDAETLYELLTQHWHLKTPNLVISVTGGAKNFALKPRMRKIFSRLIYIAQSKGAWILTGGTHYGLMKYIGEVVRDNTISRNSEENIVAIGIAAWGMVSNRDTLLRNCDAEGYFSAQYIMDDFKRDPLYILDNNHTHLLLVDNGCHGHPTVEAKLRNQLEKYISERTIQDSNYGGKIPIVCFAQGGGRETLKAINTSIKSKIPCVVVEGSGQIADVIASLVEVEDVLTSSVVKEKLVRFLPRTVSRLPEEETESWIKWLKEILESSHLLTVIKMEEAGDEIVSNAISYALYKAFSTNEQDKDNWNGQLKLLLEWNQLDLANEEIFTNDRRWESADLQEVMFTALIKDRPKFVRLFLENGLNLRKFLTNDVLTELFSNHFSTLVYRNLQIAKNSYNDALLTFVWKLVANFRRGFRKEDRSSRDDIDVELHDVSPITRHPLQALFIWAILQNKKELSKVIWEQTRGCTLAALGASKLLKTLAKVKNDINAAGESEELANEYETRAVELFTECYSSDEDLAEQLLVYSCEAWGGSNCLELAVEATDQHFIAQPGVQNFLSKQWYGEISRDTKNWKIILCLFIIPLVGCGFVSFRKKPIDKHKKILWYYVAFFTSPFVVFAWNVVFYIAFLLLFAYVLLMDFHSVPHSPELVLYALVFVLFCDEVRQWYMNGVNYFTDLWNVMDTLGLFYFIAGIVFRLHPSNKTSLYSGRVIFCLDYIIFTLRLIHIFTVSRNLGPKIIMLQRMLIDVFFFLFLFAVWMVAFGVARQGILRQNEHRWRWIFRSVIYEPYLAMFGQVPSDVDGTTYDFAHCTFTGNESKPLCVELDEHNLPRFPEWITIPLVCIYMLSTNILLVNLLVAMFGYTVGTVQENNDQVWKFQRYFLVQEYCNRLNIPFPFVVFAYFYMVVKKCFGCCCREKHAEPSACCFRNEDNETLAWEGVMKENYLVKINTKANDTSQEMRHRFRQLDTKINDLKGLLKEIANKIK
Experimental: The functional activity of compounds of Formula (I) was determined by measuring changes in intracellular calcium concentration using a Ca^2+-sensitive fluorescent dye. The changes in fluorescent signal were monitored by a fluorescence plate reader, either a FLIPR™ (Molecular Devices) or FDSS (Hamamatsu).
HEK293 cells stably expressing canine TRPM8 were routinely grown as monolayers in Dulbecco's minimum essential medium supplemented with 10% FBS, 1 mM L-glutamine, 100 units/mL penicillin, 100 ug/mL streptomycin and 400 μg/mL G418. Cells were maintained in 5% CO2 at 37° C. At 24 hrs prior to assay, cells were seeded in clear-base poly-D-lysine coated 384-well plates (BD Biosciences, NJ, USA) at a density of 5,000 cells per well in culture medium and grown overnight in 5% CO2 at 37° C. On assay day, growth media was removed and cells were loaded with Calcium 3 Dye (Molecular Devices) for 35 min at 37° C., under 5% CO2 and then for 25 min at room temperature and atmosphere. Subsequently, cells were tested for agonist-induced increases in intracellular Ca^2+ levels using FLIPR™ or FDSS. Cells were challenged with a compound of Formula (I) (at varying concentrations) and intracellular Ca^2+ was measured for 5 min prior to the addition of icilin to all wells to achieve a final concentration which produces approximately an 80% maximal response.
Basal FI was subtracted prior to normalizing data to percent of maximal response. Curves were generated using the average of quadruplicate wells for each data point, were analyzed using nonlinear regression of either sigmoidal dose response or sigmoidal dose response (variable slope). Finally, the EC50 and IC50 values were calculated with the best-fit dose curve determined by GraphPad Prism.

rats = assay: Reversal of icilin-induced behaviors in rats; format: in vivo, rat; settings: 30 mg/kg p.o., 1 h post-icilin
Experimental: In this paradigm, icilin-induced shaking was counted for 10 minutes followed by administration of a compound of Formula (I). The diminution of shaking behavior is represented as a percent inhibition relative to icilin-induced shakes in the absence of test compound administration, as described by the following formula: % Inhibition=[1−(WDS count following test compound dose/WDS count prior to test compound dose)]×100.

canine TRPM8 [2] = biological target: T1, canine TRPM8; assay: TRPM8 patch clamp assays; format: cell-based; settings: whole-cell patch clamp, HEK293
Experimental: For patch clamp experiments, HEK293 cells stably transfected with canine TRPM8 were cultured in DMEM supplemented with 10% fetal bovine serum, 100 units/ml penicillin, 100 μg/ml streptomycin and 1 mg/ml G418. Cells were maintained at 37° C. and in 5% CO2.
The extracellular solution contained (in mM): NaCl, 132; EGTA, 1; KCl, 5.4; MgCl2, 0.8; HEPES, 10; glucose, 10; pH=7.4. Recordings were performed using the conventional whole-cell patch clamp technique, 1-2 days after plating cells onto glass coverslips at densities appropriate for single cell recording. Currents were amplified by a patch clamp amplifier and filtered at 2 kHz (Axopatch 200B, Molecular Devices, Union City, Calif.). Menthol (100 μM) was applied to the cell at 0.5 ml/min via a gravity-fed perfusion system. […]
In experiments where temperatures were varied, temperature ramps were generated by cooling the perfusate in an in-line cooler (Model SC-20, Warner Instruments, Hamden, Conn.) controlled by a temperature controller (Model CL-100, Warner Instruments). The temperature in the vicinity of the recorded cell was measured with a custom-made miniature thermo-microprobe connected to a monitoring thermometer (Model TH-8, Physitemp, Clifton, N.J.), and sampled using Digidata 1322A and pClamp 9.0 (Molecular Devices), as were the currents concurrently measured in the whole-cell patch clamp mode. […]

male SD rats = assay: Chronic constriction injury (CCI)-induced model of neuropathic pain, acetone-induced hypersensitivity; format: in vivo, rat; settings: 30 mg/kg p.o., preRx 1 hr
Experimental: Through the mesh floor a series of five applications of acetone (0.05 mL/application) was sprayed onto the bottom of the paw using a multidose syringe device. A positive response took the form of an abrupt withdrawal or lifting of the paw. The percentage of positive responses from the five trials represented the individual's overall response that was then averaged over the entire treatment group. […] An ascending dose response relationship (as in Table 10 below) was generated by addition of successive doses of test compound followed by re-assessment of behavior.

Compound | % Reversal (Sprague-Dawley rats; time 2 h) | % I (0.5 μM) (canine TRPM8 [1]) | % Reversal (Sprague-Dawley rats; time 1 h) | other results
CCOP(=O)(OCC)C(Cc1ccc(F)c(Cl)c1)c1sc2ccccc2c1Br (racemic) [Cpd 244] | 45% | – | – | –
(S)-[1-(3-Bromo-benzo[b]thiophen-2-yl)-2-(4-fluoro-phenyl)ethyl]-phosphonic acid diisopropyl ester [Cpd 239] | 36% | 103, 103% | – | IC50 (canine TRPM8 [1]; eight-point dose-response): 0.037 µM and 0.027 µM and 0.031 µM; % Inhibition (rats): 48.4%; IC50 (canine TRPM8 [2]; read-out: Cold (10° C.) IC50, mode of activation cold 10° C.): 0.0058 µM; IC50 (canine TRPM8 [2]; read-out: Menthol (100 μM) IC50, mode of activation menthol 100 μM, 22° C.): 0.003 µM; % of Allodynic Baseline (male SD rats): 29.4%
(S)-[1-(3-Bromo-benzo[b]thiophen-2-yl)-2-(4-trifluoromethoxy-phenyl)-ethyl]-phosphonic acid diisopropyl ester [Cpd 236] | 25% | – | – | –
CCOP(=O)(OCC)C(Cc1ccc(SC)cc1)c1sc2ccccc2c1Cl (racemic) [Cpd 299] | – | – | 23% | –
CCOP(=O)(OCC)C(Cc1ccc(F)c(C(F)(F)F)c1)c1sc2ccccc2c1Cl (racemic) [Cpd 298] | – | 99% | 20% | –
CC(C)OP(=O)(OC(C)C)C(Cc1ccc(F)cc1)c1sc2ccccc2c1Br (centres unmarked) [Cpd 197] | 23% | – | – | % I (1 μM) (canine TRPM8 [1]; compound at 1 μM): 100%
